One experiment relates to Pyricularia oryzae. Description: whole plant or invertebrate. It is filed as in vivo. Particulars: Pyricularia oryzae, 120 h; for pest or weed control at 100 ppm: read-out: disease control rating, Ex. E, 100 PPM.
In experiment [1] the test system is Cercosporidium personatum. As to the kind of experiment: Example B Peanut Late Leafspot. Particulars: Nothopassalora personata, read-out: disease control rating, Ex. B. In kind it is in vivo. A digest of the protocol: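 Dose 100 or 20 ppm; vehicle acetone 6% v/v final in water + 250 ppm surfactant; applied by spraying peanut seedlings to run-off.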
The subject of another experiment is Venturia inaequalis. As to the kind of experiment: Example A apple scab. Particulars: read-out: disease control rating, Ex. A. It is filed as in vivo. An outline of the steps: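 First, compounds are taken up in acetone amounting to 6% of the final volume. Next, they are suspended in purified water with 250 ppm TREM 014 at 100 or 20 ppm. Finally, seedlings of apple are sprayed until run-off.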

Experiment [2] concerns Aspergillus fumigatus ATCC 28214. As to the kind of experiment: In vitro antifungal MIC, microtiter broth dilution. Particulars: Aspergillus fumigatus, ATCC28214, 24 h, read-out: MIC values, A. fumigatus, 30°, 24 hours.
Experiment [3] has as its system Erysiphe graminis f. sp. tritici. Description: Example D wheat powdery mildew. It is filed as in vivo. Particulars: Blumeria graminis, 144 h, read-out: disease control rating, Ex. D. An outline of the steps: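 First, compound taken up in acetone, 6% of the end volume. Next, suspended in water with 250 ppm polyhydric alcohol esters at 100 or 20 ppm. Last, applied to wheat seedlings until run-off.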

In experiment [4] the test system is Fusarium oxysporum f. sp. cucumerinum. Description: Example L cucumber wilt. It is filed as in vivo. Particulars: 336 h, 5 kg/ha, read-out: disease control rating, Ex. L. The method, then: […] Seeds and soil were then inoculated with a mixture of sand, cereal and mycelium of the fungus Fusarium oxysporum f. sp. cucumerinum, causal agent of cucumber wilt, and incubated in a growth chamber at 30° C. for 14 days. Disease ratings were then made.

The subject of a further experiment is Puccinia recondita. As to the kind of experiment: Example G wheat leaf rust. In kind it is in vivo. Particulars: read-out: disease control rating, Ex. G.
In a further experiment the test system is Plasmorpara viticola. As to the kind of experiment: Example I grape downy mildew. It is filed as in vivo. Particulars: read-out: disease control rating, Ex. I. A digest of the protocol:
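Compounds were dissolved in acetone (6% of final volume) and suspended at 100 or 20 ppm in purified water with 250 ppm TREM 014 surfactant (polyhydric alcohol esters). Grape seedlings were sprayed with this suspension to run-off.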

Experiment [5] relates to Rhizoctonia solani. Description: Example F rice sheath blight. In kind it is in vivo. Particulars: Rhizoctonia solani, 144 h, read-out: disease control rating, Ex. F. An outline of the steps:
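Application rates were 100 or 20 ppm, delivered as a foliar spray to the point of run-off on rice seedlings. The formulation used 6% acetone in water with 250 ppm surfactant.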

The subject of experiment [6] is Candida albicans ATCC 11651. Description: In vivo systemic Candida infection in mice, primary assay. Also on record: species or system Candida albicans; CF-1 female mice. Particulars: Candida albicans, 150 mg/kg per day, read-out: % Survival. An outline of the steps: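 CF-1 female mice (20 g, 10 per group) were infected IV with 0.2 ml of 1×10^7/ml C. albicans ATCC 11651, then given test compound subcutaneously at 50 or 150 mg/kg/day at 1 and 6 h post-infection and once daily for three more days. Survival was followed for 21 days against infected untreated mice; ≥70% protection at 14 days was scored active.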

For the next experiment, the system named is Pythium aphanadermatum. Description: Example J cucumber damping off. It is filed as in vivo. Particulars: Pythium, 336 h; 5 kg/ha; read-out: disease control rating, Ex. J. A digest of the protocol: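 Seeds and soil were inoculated with a mix of sand, cereal and Pythium aphanadermatum mycelium, the fungus responsible for cucumber damping off. They were kept in a growth chamber at 30° C. for 14 days, and disease was then rated to assess control.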

The test system of the next experiment is Phytophthora infestans. As to the kind of experiment: whole plant or invertebrate. It is filed as in vivo. Particulars: Phytophthora infestans, in Solanum lycopersicum, read-out: disease control rating, Ex. H, 100 PPM.
The subject of another experiment is Botrytis cinerea. As to the kind of experiment: Example C bean grey mold. It is filed as in vivo. Particulars: Botrytis cinerea, 24 h, read-out: disease control rating, Ex. C. An outline of the steps:
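At 20 or 100 ppm, each compound was applied as an aqueous suspension (acetone 6% final; TREM 014 250 ppm) sprayed onto young broad bean plants to the point of run-off.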

Experiment [7] concerns Candida albicans ATCC 11651. Description: In vitro antifungal MIC, microtiter broth dilution. Particulars: for MIC: Candida albicans, ATCC11651, 24 h, read-out: MIC values, C. albicans, 30°, 24 hours.
The subject of experiment [8] is Rhizoctonia solani. As to the kind of experiment: Example K cotton blight. It is filed as in vivo. Particulars: 336 h, 5 kg/ha, read-out: disease control rating, Ex. K. The protocol: […] Seeds and soil were then inoculated with a mixture of sand, cereal and mycelium of the fungus Rhizoctonia solani, causal agent of cotton blight, and incubated in a growth chamber at 30° C. for 14 days. Disease ratings were then made.

Converted amounts (≈) assume the structure as drawn. Like-named read-outs stand apart in the source and are kept apart here.

For the compound `C=C(c1ccc(F)cc1)C(O)(Cn1cncn1)c1ccc(F)cc1` (stereo not shown) [Example 1, 2,3-Bis(4-fluorophenyl)-1-(1H-1,2,4-triazol-1-yl)-3-buten-2-ol], the pest or weed control at 100 ppm in the experiment on Pyricularia oryzae was found to be 90%; in experiment [1], 100%; in the experiment on Venturia inaequalis it was 62%; in [3], 98%; in the experiment on Puccinia recondita, 100%; in the experiment on Plasmorpara viticola it was 12%. The pest or weed control at 100 ppm with Rhizoctonia solani [5] amounted to 97%; with Phytophthora infestans, 0%; in the experiment on Botrytis cinerea, 81%. Also, the MIC in experiment [2] was 6.3 µg/mL (≈ 19.2 µM). Also, the pest or weed control at 5000 g/ha (in experiment [4]; in the experiment on Pythium aphanadermatum) was 0% in each case. The responders at 150 mg/kg in experiment [6] (ATCC11651, 168 h, day 7) is 100%; in [6] (ATCC11651, 336 h, day 14) it was 100%; in experiment [6] (ATCC11651, 504 h, day 21) it was 80%. In experiment [7] (30°, 24 hours), the “MIC values, C. albicans” value is not above 0.01 µg/mL.

As to `C=C(c1ccc(F)cc1)C(O)(Cn1cncn1)c1ccc(Cl)cc1Cl` (stereo not shown) [Example 2], the pest or weed control at 100 ppm was determined as 95% with Pyricularia oryzae; 100% in experiment [1]; 62% in the experiment on Venturia inaequalis; 98% in experiment [3]; 100% with Puccinia recondita; 99% in the experiment with Plasmorpara viticola. For the same compound, the results for the pest or weed control at 100 ppm in the experiment on Rhizoctonia solani [5], in the experiment with Phytophthora infestans and in the experiment with Botrytis cinerea were 100%, 0% and 93%, respectively. The MIC in [2] is 1.6 µg/mL (≈ 4.23 µM); in experiment [7] it was not above 0.4 µg/mL. Further, the pest or weed control at 5000 g/ha (in experiment [4]; with Pythium aphanadermatum) was 0% throughout. The responders at 150 mg/kg in experiment [6] (ATCC11651, 168 h, day 7) was 100%; in experiment [6] (ATCC11651, 336 h, day 14), 100%; in experiment [6] (ATCC11651, 504 h, day 21), 80%.

With `C=C(c1cccc(F)c1)C(O)(Cn1cncn1)c1ccc(F)cc1` (stereo not shown) [Example 15], the pest or weed control at 100 ppm amounted to 1% in the experiment on Pyricularia oryzae; 100% in experiment [1]; 100% in the experiment on Venturia inaequalis; 100% in experiment [3]; 100% in the experiment on Puccinia recondita; 0% in the experiment on Plasmorpara viticola. Also, the pest or weed control at 100 ppm in the experiment on Rhizoctonia solani [5] worked out at 93%; with Phytophthora infestans, 26%; with Botrytis cinerea it was 99%. The MIC came out at 50 µg/mL (≈ 153 µM) in [2] and 0.1 µg/mL (≈ 0.305 µM) in experiment [7]. The pest or weed control at 5000 g/ha (in experiment [4]; in the experiment on Pythium aphanadermatum) was 0% each time. The responders at 150 mg/kg in [6] (ATCC11651, 168 h, day 7) is 100%; in experiment [6] (ATCC11651, 336 h, day 14) it was 90%; in [6] (ATCC11651, 504 h, day 21) it was 60%.

As to `C=C(c1ccccc1)C(O)(Cn1cncn1)c1ccc(F)cc1` (stereo not shown) [Example 49, 2-(4-Fluorophenyl)-3-phenyl-1-(1H-1,2,4-triazol-1-yl)-3-buten-2-ol], the pest or weed control at 100 ppm in the experiment with Pyricularia oryzae was 76%; in experiment [1] it was 100%; in the experiment with Venturia inaequalis, 89%; in [3], 100%; in the experiment with Puccinia recondita, 100%; with Plasmorpara viticola it was 0%. In addition, the pest or weed control at 100 ppm in the experiment with Rhizoctonia solani [5] came out at 96%; in the experiment on Phytophthora infestans, 0%; with Botrytis cinerea, 62%. Moreover, the MIC was 12.5 µg/mL (≈ 40.4 µM) in experiment [2] and 0.03 µg/mL (≈ 0.097 µM) in experiment [7]. The pest or weed control at 5000 g/ha (in experiment [4]; in the experiment with Pythium aphanadermatum) was 0% each time. Moreover, the responders at 150 mg/kg in experiment [6] (ATCC11651, 168 h, day 7) amounted to 100%; in experiment [6] (ATCC11651, 336 h, day 14) it was 90%; in [6] (ATCC11651, 504 h, day 21), 60%.

For `C=C(c1ccccc1)C(O)(Cn1cncn1)c1ccc(Cl)s1` (stereo not shown) [Example 618], the pest or weed control at 100 ppm with Pyricularia oryzae came to 0%; in experiment [1] it was 100%; with Venturia inaequalis it was 100%; in [3], 89%; with Puccinia recondita, 100%; in the experiment with Plasmorpara viticola it was 0%. Also, the pest or weed control at 100 ppm was 0% in the experiment with Phytophthora infestans and 98% in the experiment with Botrytis cinerea. The values for the pest or weed control at 5000 g/ha (in experiment [4]; with Pythium aphanadermatum; in the experiment on Rhizoctonia solani [8]) were 80%, 0% and 80%, respectively.

As to `C=C(c1ccccc1)[C@](O)(Cn1cncn1)c1ccc(F)cc1` [Example 1276], the pest or weed control at 20 ppm was 1% in the experiment with Pyricularia oryzae (read-out: disease control rating, Ex. E, 20 PPM); 100% in [1] (20 PPM); 93% with Venturia inaequalis (20 PPM); 100% in [3] (20 PPM); 100% in the experiment on Puccinia recondita (20 PPM); 52% with Rhizoctonia solani [5] (20 PPM). The pest or weed control at 20 ppm in the experiment with Botrytis cinerea (20 PPM) turned out to be 86%. Also, the pest or weed control at 100 ppm in the experiment on Pyricularia oryzae is 1%; in the experiment on Venturia inaequalis it was 100%; in [3], 100%; with Puccinia recondita, 100%; in the experiment with Plasmorpara viticola it was 0%; with Rhizoctonia solani [5], 97%. In addition, the pest or weed control at 100 ppm in the experiment with Phytophthora infestans stood at 0%; in the experiment with Botrytis cinerea, 96%. In addition, the minimal inhibitory concentration (MIC) in [2] was 1.6 µg/mL (≈ 5.17 µM); in experiment [7] it was 0.03 µg/mL (≈ 0.097 µM). Besides, the pest or weed control at 5000 g/ha (in experiment [4]; in the experiment with Pythium aphanadermatum) was 0% in each case. Also, the responders at 150 mg/kg in [6] (ATCC11651, 168 h, day 7) came out at 100%; in [6] (ATCC11651, 336 h, day 14) it was 70%; in experiment [6] (ATCC11651, 504 h, day 21) it was 50%.

The values are drawn from patent US4965280A, “Antifungal carbinols” (E. I. Du Pont de Nemours and Company, priority 1989, dated 1990).
